Measurements as given in patent US12702665B2, “ExoVII inhibitor and quinolone antibiotic combination useful for treating bacterial infection” (The United States of America, As Represented by the …, priority 2020, dated 2026).

Tests used:
[1] = test system: E. coli pgyrAHis transformants deficient in ExoVII; experiment: Spotting assay on LB plates containing quinolones; type: cell-based; conditions: ΔxseA or ΔxseB pgyrAHis transformants vs wild-type
Source text: FIG. 8A, FIG. 8B, and FIG. 8C. Expression of a functional GyrAHis has no impact on sensitivities of E. coli strains to quinolones. FIG. 8A. Transformants of a single-copy plasmid bearing the gyrA gene including its endogenous promoter and a C-terminal His-tag (pgyrAHis) were established in either the wild-type, ΔxseA or ΔxseB strains. […] The asterisk denotes a non-specific band. FIG. 8B. Immunoblotting of the same transformants as in FIG. 8A, probed with anti-GyrA antibody (Abcam). FIG. 8C. […] Two technical replicates are shown.
Cell killing assays were carried out as previously described. Briefly, transformants harboring pBAD/Thio, pYtopA or pYtopA-R327W were grown in LB with 2% glucose and 50 μg/mL carbenicillin overnight and diluted 1:100 in LB with 50 μg/mL carbenicillin and grown to OD600 of 0.4. YTop1 or YTop1-R327W were induced by addition of 0.2% arabinose for 0.5-2 hrs. Post-induction cultures were then serially diluted and spotted onto LB plates with 2% glucose and 50 μg/mL carbenicillin and incubated at 37° C. overnight. Alternatively, exponentially growing transformants were serially diluted as indicated and spotted on LB plates containing 50 μg/mL carbenicillin and indicated concentrations of arabinose and incubated at 37° C. overnight.

[2] = test system: E. coli strains carrying the gyrA-S83L mutation; experiment: MIC of ciprofloxacin (MIC test strips), quinolone-resistant gyrA-S83L strains; type: cell-based
[3] = test system: Staphylococcus aureus strain HG003; experiment: Synergy with ciprofloxacin in Staphylococcus aureus cultures (OD600 growth); type: cell-based; conditions: gram-positive
Method: (§1) OD600 was measured at the end of 4-hr incubation at 37° C. shaking at 225 rpm and cell densities were normalized to samples without any drug treatment. Toxicity of compounds were measured by treating either HEK293 or MEF (1000 cells in 96-well plates seeded 24-hr prior) with indicated concentrations of ExoVII inhibitor for 72 hours. The samples were imaged with a Cytation 5 (BioTek) and the confluency of each well were normalized to untreated samples.

ExoVII = target: T1, ExoVII (Escherichia coli, UniProt P04994); experiment: In-vitro ExoVII cleavage assay (IC50 determination); type: biochemical
T1 construct: purchased ThermoFisher or NEB
T1 sequence (P04994 whole entry): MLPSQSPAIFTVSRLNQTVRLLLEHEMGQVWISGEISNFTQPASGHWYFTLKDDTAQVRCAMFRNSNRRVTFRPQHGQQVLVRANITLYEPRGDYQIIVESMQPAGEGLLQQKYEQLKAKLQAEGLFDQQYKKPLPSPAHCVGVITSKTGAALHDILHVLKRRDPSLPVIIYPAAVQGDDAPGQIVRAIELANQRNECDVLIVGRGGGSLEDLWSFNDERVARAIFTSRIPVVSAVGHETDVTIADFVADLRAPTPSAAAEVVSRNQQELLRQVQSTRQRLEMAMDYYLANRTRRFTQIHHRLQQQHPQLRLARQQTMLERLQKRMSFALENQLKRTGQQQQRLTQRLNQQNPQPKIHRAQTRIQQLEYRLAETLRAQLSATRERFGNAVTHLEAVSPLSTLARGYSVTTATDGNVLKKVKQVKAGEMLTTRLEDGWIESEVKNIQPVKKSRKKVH
T1 sequence (P0A8G9 whole entry, further chain): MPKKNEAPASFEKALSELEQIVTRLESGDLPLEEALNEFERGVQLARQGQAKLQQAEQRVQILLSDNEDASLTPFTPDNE
Method: FIG. 13A, FIG. 13B, FIG. 13C, and FIG. 13D. CPID is a specific ExoVII inhibitor. FIG. 13A. […] FIG. 13B. […] FIG. 13C. […] Representative gel image and quantification are shown. IC50 value was averaged from 5 independent experiments. FIG. 13D. CPID is not toxic to HEK293 or MEF cells as determined by relative confluency of seeded cells after 72-hour treatment at the indicated CPID concentration.
ExoVII reactions were incubated at 37° C. for 1 or 2 hrs followed by inactivation at 55° C. for 30 mins before terminated by addition of 20 μL formamide gel loading buffer (96% (v/v) formamide, 10 mM ethylenediaminetetraacetic acid, 1% (w/v) xylene cyanol and 1% (w/v) bromophenol blue). For IC50 determination, ExoVII was preincubated with the inhibitor at 25° C. for 5 mins before addition of equal volume of DNA solution and the reaction continued for another 20-30 mins. The 10 μL reaction contained 0.025 U/μL ExoVII, 20-100 nM internally ratio-labeled DNA substrate, and indicated inhibitor concentration in buffer with 50 mM potassium acetate, 20 mM trisacetate (pH=7.9), 10 mM magnesium acetate, 1 mM DTT and 10% (v/v) DMSO. The percentage of products in the presence of inhibitor was normalized to that of control reaction without any inhibitors, and resulting plot was fitted to a nonlinear regression function in Prism. DNA gyrase was purified as previously described.

WT-pgyrA-S83L = experiment: Synergy with ciprofloxacin in quinolone-resistant strain (OD600 growth); type: cell-based, E. coli
Method: as §1

ΔxseB-pgyrA-S83L = experiment: Synergy with ciprofloxacin in quinolone-resistant ExoVII-deficient strain (OD600 growth); type: cell-based, E. coli
Method: as §1

ΔxseA-pgyrA-S83L = experiment: as above; type: cell-based, E. coli
Method: as §1

Compound: CCn1cc(C(=O)O)c(=O)c2ccc(C)nc21 [nalidixic acid]
- Sensitivity of ExoVII-deficient transformants to quinolones [1]: hypersensitivity

Compound: O=C(O)c1cn(C2CC2)c2cc(N3CCNCC3)c(F)cc2c1=O [ciprofloxacin]
- Decrease in ciprofloxacin MIC on inactivating either subunit of ExoVII ([2]; gyrA-S83L background): ~ 2 fold
- Increase in ciprofloxacin MIC by gyrA-S83L ([2]; gyrA-S83L vs wild-type gyrA): 10 fold
- Sensitivity of ExoVII-deficient transformants to quinolones [1]: hypersensitivity

Compound: O=C1Cc2ccc(-c3cccc(Cl)c3)cc2C(=O)N1 [CPID, 7-(3-chlorophenyl)-1,3(2H,4H)-Isoquinolinedione]
- Synergy with ciprofloxacin [3]: clear synergy
- IC50 (ExoVII): 2.43 µM
- Synergy with ciprofloxacin (WT-pgyrA-S83L): synergistic
- Synergy with ciprofloxacin (ΔxseB-pgyrA-S83L): not synergistic
- Synergy with ciprofloxacin (ΔxseA-pgyrA-S83L): not synergistic
